US12016843B2, “Compositions and methods for the treatment of amyotrophic lateral sclerosis, parkinson's disease, parkinson's disease with dementia, dementia with lewy bodies, and multiple system atrophy” (priority 2019, dated 2024)

Tested on: corticospinal motor neurons derived from prp-TDP-43^A315T-UeGFP mouse model
Test: Neurite length in primary corticospinal motor neurons from prp-TDP-43^A315T-UeGFP mice
Format: cell-based
Details: 10 nM, 100 nM and 1000 nM, vs DMSO vehicle
Experimental: Studies were performed in primary cells derived from the prp-TDP-43^A315T-UeGFP mouse model (Gautam, et al. Acta Neuropathol. 2019 January; 137(1): 47-69). Briefly, these mice express a pathogenic human TDP43 transgene which leads to severe structural alterations in the mitochondria, nucleus, and endoplasmic reticulum on the background of an eGFP reporter mouse. Both transgene (prp) and reporter (UCHL1) are driven by tissue specific promoter elements, leading to the generation of fluorescent green corticospinal motor neurons carrying the TDP43 mutation. Utilizing the endogenous fluorescence of the eGFP reporter, corticospinal motor neurons can be directly visualized in situ. Mixed cortical cultures were derived from the brains of prp-TDP-43^A315T-UeGFP mice and allowed to divide in serum free minimal medium for 3 cell divisions. Culture media +/− drug was removed and replenished daily. Doses of Compound Ia utilized in the experiment were 10 nM; 100 nM and 1000 nM. Drug was prepared in DMSO vehicle, and DMSO was used as vehicle control (<1% volume/volume). Cells were imaged using standard fluorescent microscopy techniques. Neurite length was calculated using automated imaging software (NIH Image J) on GFP expressing cells. Three independent biological replicates were performed, with a minimum of 10 motor neurons imaged per each replicate. […]

SMILES: Cc1cc(O)cc(C)c1C[C@H](NC(=O)[C@H](N)CCCNC(=N)N)C(=O)N[C@@H](CCCCN)c1nc(Cc2ccccc2)no1.Cl.Cl.Cl [Compound Ia, (R)-2-amino-N—((S)-1-(((S)-5-amino-1-(3-benzyl-1,2,4-oxadiazol-5-yl)pentyl)amino)-3-(4-hydroxy-2,6-dimethylphenyl)-1-oxopropan-2-yl)-5-guanidinopentanamide·3HCl]
- average neurite length per cell: improved neurite length at all doses assessed
